Read-outs that look alike come from different tables or passages of the source. *1 amine or outer side, *2 acyl side, *3 side chain or, on linkers, in order; H or OH if unused. Where a SMILES comes first, the peptide text is derived from it. Bridges are numbered along the chain shown (N, C = ends). [ ]: non-standard residue; d: D form. The star is where a group is joined. NMeAla(4-thiazolyl) = CN[C@@H](Cc1cscn1)C(=O)O; hhPhe = N[C@@H](CCCc1ccccc1)C(=O)O; NMeF = CN[C@@H](Cc1ccccc1)C(=O)O; NMeGABA = CN(CCCC(=O)[*:2])[*:1]; NMeI = CC[C@H](C)[C@H](NC)C(=O)O; 3Pal = N[C@@H](Cc1cccnc1)C(=O)O; NMeD = CN[C@@H](CC(=O)O)C(=O)O; NMeL = CN[C@@H](CC(C)C)C(=O)O; NMeV = CN[C@H](C(=O)O)C(C)C; NMeA = CN[C@@H](C)C(=O)O; Piperidide = C1CCN(*)CC1; dNMeA = CN[C@H](C)C(=O)O; NPrGly = CCCNCC(=O)O; Sar = CNCC(=O)O; tBu = CC(C)(C)*
Key:
[1] = Actual measurement of pKa of amino acid side chains by titration (Sirius T3) on three-residue peptides; format: physicochemical; settings: amino acid side chain, Sirius T3 titration
Procedure: pKas and basic pKas can be determined by a conventional method. For example, they can be measured by a method such as that described in Experimental Chemistry Lecture 5, “Thermal Measurements and Equilibrium”, p. 460 (edited by The Chemical Society of Japan, published by Maruzen Co., Ltd.). More specifically, they can be measured by a method described in Reference Example 3-1.
Herein, measurement of pKas of amino acid side chains was carried out according to the following procedure.
Sirius T3 (Sirius Analytical Instruments Ltd., Forest Row, East Sussex, RH18 5DW, UK)
0.15 M KCl was added to about 1 mg of a test substance as a powder or in about 100 μL of a 10 mM DMSO solution. When the test substance was a basic compound, 0.5 M HCl was added until pH 2 and the test substance was then titrated to pH 12 with 0.5 M KOH.
When the test substance was an acidic compound, 0.5 M KOH was added until pH 12 and the test substance was then titrated to pH 2 with 0.5 M HCl.
Titration operations were automatically performed by T3 manufactured by Sirius, and pKas were determined from the resulting titration curves using Sirius T3 Refinement software.
pKas were similarly determined using imipramine HCl, propranolol HCl, and warfarin as reference compounds, and were confirmed to be within the test results obtained in Sirius. pKas of amino acid side chains were determined by synthesizing a sequence in which the amino acid to be evaluated is introduced into the second residue (the position X in the following table) of a peptide composed of three residues as shown below.

in vitro = settings: human

| Compound | Caco-2 (Caco-2) | Papp (in vitro; Caco-2, Caco-2 (cm/sec)) | further results |
| --- | --- | --- | --- |
| CS(=O)(=O)NC(=O)CC[C@H](N)C(=O)O [Gln(Ms)] | – | – | measured pKa [1]: 3.8 |
| CC(C)C[C@H]1C(=O)N[C@@H](COC(C)(C)C)C(=O)N(C)[C@@H](Cc2ccccc2)C(=O)N(C)[C@@H](C(C)C)C(=O)N[C@H](C(=O)N2CCCCC2)CC(=O)N[C@H](C)C(=O)N(C)[C@@H](Cc2ccccc2)C(=O)NC(COc2cccc(Cl)c2)C(=O)N(C)[C@@H](C(C)C)C(=O)N[C@@H]([C@@H](C)O)C(=O)N(C)CC(=O)N1C (stereo partly shown) [pd185] | 2.2e-06 cm/s | 2.2 ×10⁻⁶ cm/s | – |
| CC(C)C[C@H]1C(=O)N[C@@H](COC(C)(C)C)C(=O)N(C)[C@@H](Cc2ccccc2)C(=O)N(C)[C@@H](C(C)C)C(=O)N[C@H](C(=O)N2CCCCC2)CC(=O)N[C@H](C(C)C)C(=O)N(C)[C@@H](Cc2ccccc2)C(=O)N[C@@H](COc2cccc(Cl)c2)C(=O)N(C)[C@@H](C)C(=O)N[C@@H]([C@@H](C)O)C(=O)N(C)CC(=O)N1C [pd187] | 1.9e-06 cm/s | 1.9 ×10⁻⁶ cm/s | – |
| CC[C@H](C)[C@H]1C(=O)N[C@@H]([C@@H](C)O)C(=O)N(C)CC(=O)N(C)[C@@H](CC(C)C)C(=O)N[C@H](C(=O)N2CCCCC2)CC(=O)N(C)[C@@H](C)C(=O)NC(COc2cccc(Cl)c2)C(=O)N(C)[C@@H](CC(C)C)C(=O)N(C)[C@@H](Cc2ccccc2)C(=O)N[C@@H](C)C(=O)N(C)[C@@H](Cc2ccccc2)C(=O)N1C (stereo partly shown) [pd188] | 1.3e-06 cm/s | 1.8 ×10⁻⁶ cm/s | Caco-2 (Caco-2; human): 1.3e-06 cm/s |
| CC[C@H](C)[C@H]1C(=O)N[C@H](C(=O)N2CCCCC2)CC(=O)N(C)CC(=O)N(C)[C@@H](Cc2ccccc2)C(=O)N[C@@H](CCCc2ccccc2)C(=O)N(C)[C@@H](CC(C)C)C(=O)N[C@@H]([C@@H](C)O)C(=O)N(C)CC(=O)N(C)[C@@H](Cc2ccccc2)C(=O)N(C)[C@@H](CC(C)C)C(=O)N[C@@H](COC(C)(C)C)C(=O)N1C [pd189] ([Sar][NMeF][hhPhe][NMeL]T[Sar][NMeF][NMeL]S(tBu)[NMeI]D-Piperidide; lactam N-11) | 1.8e-06 cm/s | 1.8 ×10⁻⁶ cm/s | – |
| CC[C@H](C)[C@@H]1NC(=O)[C@H](Cc2ccccc2)N(C)C(=O)CN(C)C(=O)C[C@@H](C(=O)N2CCCCC2)NC(=O)[C@H](C)N(C)C(=O)[C@H](CCCc2ccccc2)NC(=O)[C@H](CC(C)C)N(C)C(=O)[C@H](Cc2ccccc2)N(C)C(=O)CN(C)C(=O)[C@H]([C@@H](C)O)NC(=O)[C@H](CC(C)C)N(C)C1=O [pd190] ([Sar][NMeF]I[NMeL]T[Sar][NMeF][NMeL][hhPhe][NMeA]D-Piperidide; lactam N-11) | 1.5e-06 cm/s | 1.5 ×10⁻⁶ cm/s | – |
| CC(C)C[C@H]1C(=O)N[C@H](C(=O)N2CCCCC2)CC(=O)N(C)[C@@H](C)C(=O)N[C@@H](CCCc2ccccc2)C(=O)N(C)[C@@H](CC(C)C)C(=O)N(C)[C@@H](Cc2ccccc2)C(=O)N[C@@H](C)C(=O)N(C)[C@@H](Cc2ccccc2)C(=O)N(C)[C@@H](C(C)C)C(=O)N[C@@H]([C@@H](C)O)C(=O)N(C)CC(=O)N1C [pd191] ([NMeA][hhPhe][NMeL][NMeF]A[NMeF][NMeV]T[Sar][NMeL]D-Piperidide; lactam N-11) | 1.5e-06 cm/s | 1.5 ×10⁻⁶ cm/s | – |
| CC(C)C[C@H]1C(=O)N[C@@H](COC(C)(C)C)C(=O)N(C)[C@@H](Cc2ccccc2)C(=O)N(C)[C@@H](C)C(=O)N[C@H](C(=O)N2CCCCC2)CC(=O)N[C@H](C(C)C)C(=O)N(C)[C@@H](Cc2ccccc2)C(=O)N[C@@H](CCCc2ccccc2)C(=O)N(C)[C@@H](CC(C)C)C(=O)N[C@@H]([C@@H](C)O)C(=O)N(C)CC(=O)N1C [pd192] ([dV][NMeF][hhPhe][NMeL]T[Sar][NMeL]S(tBu)[NMeF][NMeA]D-Piperidide; lactam N-11) | 1.1e-06 cm/s | 1.1 ×10⁻⁶ cm/s | – |
| CC(C)C[C@H]1C(=O)N[C@@H](CCCc2ccccc2)C(=O)N(C)[C@@H](Cc2ccccc2)C(=O)N(C)[C@@H](C(C)C)C(=O)N[C@H](C(=O)N2CCCCC2)CC(=O)N[C@H](C)C(=O)N(C)[C@@H](Cc2ccccc2)C(=O)N[C@@H](C(C)C)C(=O)N(C)[C@@H](CC(C)C)C(=O)N[C@@H]([C@@H](C)O)C(=O)N(C)CC(=O)N1C [pd193] ([dA][NMeF]V[NMeL]T[Sar][NMeL][hhPhe][NMeF][NMeV]D-Piperidide; lactam N-11) | 1e-06 cm/s | 1 ×10⁻⁶ cm/s | – |
| CCCN1CC(=O)N(C)[C@@H](CC(C)C)C(=O)N[C@@H](COC(C)(C)C)C(=O)N(C)[C@@H](Cc2ccccc2)C(=O)N(C)[C@@H](Cc2ccccc2)C(=O)N[C@H](C(=O)N2CCCCC2)CC(=O)N[C@H](C)C(=O)N(C)[C@@H](Cc2ccccc2)C(=O)N[C@@H](C(C)C)C(=O)N(C)[C@@H](CC(C)C)C(=O)N[C@@H]([C@@H](C)O)C1=O [pd194] ([dA][NMeF]V[NMeL]T[NPrGly][NMeL]S(tBu)[NMeF][NMeF]D-Piperidide; lactam N-11) | 5.3e-06 cm/s | 5.3 ×10⁻⁶ cm/s | – |
| CCCN1CC(=O)N(C)[C@@H](Cc2ccccc2)C(=O)N[C@@H]([C@@H](C)CC)C(=O)N(C)[C@@H](Cc2ccccc2)C(=O)N[C@@H]([C@@H](C)O)C(=O)N(C)CC(=O)N(C)[C@@H](Cc2ccccc2)C(=O)N(C)[C@@H](CC(C)C)C(=O)N[C@@H](COC(C)(C)C)C(=O)N(C)[C@@H](C(C)C)C(=O)N[C@H](C(=O)N2CCCCC2)CC1=O [pd195] ([NPrGly][NMeF]I[NMeF]T[Sar][NMeF][NMeL]S(tBu)[NMeV]D-Piperidide; lactam N-11) | 5e-06 cm/s | 5 ×10⁻⁶ cm/s | – |
| CC(C)C[C@@H]1NC(=O)[C@H](Cc2ccccc2)N(C)C(=O)[C@@H]2CCCN2C(=O)C[C@@H](C(=O)N2CCCCC2)N(C)C(=O)[C@H](Cc2ccccc2)N(C)C(=O)[C@H](Cc2ccccc2)N(C)C(=O)[C@H](COC(C)(C)C)NC(=O)[C@H](C(C)C)N(C)C(=O)CN(C)C(=O)[C@H]([C@@H](C)O)NC(=O)[C@H](CC(C)C)N(C)C1=O [pd196] (P[NMeF]L[NMeL]T[Sar][NMeV]S(tBu)[NMeF][NMeF][NMeD]-Piperidide; lactam N-11) | 4e-06 cm/s | 4 ×10⁻⁶ cm/s | – |
| CC(C)C[C@@H]1NC(=O)[C@H](Cc2ccccc2)N(C)C(=O)[C@H](C)N(C)C(=O)C[C@@H](C(=O)N2CCCCC2)NC(=O)[C@H](C(C)C)N(C)C(=O)[C@H](Cc2ccccc2)N(C)C(=O)[C@H](COC(C)(C)C)NC(=O)[C@H](CC(C)C)N(C)C(=O)CN(C)C(=O)[C@H](Cc2cccnc2)NC(=O)[C@H](CC(C)C)N(C)C1=O [pd197] ([NMeA][NMeF]L[NMeL][3Pal][Sar][NMeL]S(tBu)[NMeF][NMeV]D-Piperidide; lactam N-11) | 3e-06 cm/s | 3 ×10⁻⁶ cm/s | – |
| CC(C)C[C@H]1C(=O)N(C)[C@@H](C(C)C)C(=O)N[C@@H](Cc2ccccc2)C(=O)N[C@H](C(=O)N(C)[C@@H](Cc2ccccc2)C(=O)N[C@@H](C)C(=O)N2CCCCC2)CC(=O)N(C)CCCC(=O)N[C@@H](C(C)C)C(=O)N(C)[C@@H](CC(C)C)C(=O)N[C@@H]([C@@H](C)O)C(=O)N(C)[C@@H](Cc2ccccc2)C(=O)NCC(=O)N1C [pd198] ([NMeGABA]V[NMeL]T[NMeF]G[NMeL][NMeV]FD[NMeF]A-Piperidide; lactam N-10) | 2.7e-06 cm/s | 2.7 ×10⁻⁶ cm/s | – |
| CC(C)C[C@@H]1NC(=O)[C@H](Cc2ccccc2)N(C)C(=O)[C@@H](C)N(C)C(=O)C[C@@H](C(=O)N2CCCCC2)N(C)C(=O)[C@H](Cc2ccccc2)N(C)C(=O)[C@H](Cc2ccccc2)N(C)C(=O)[C@H](COC(C)(C)C)NC(=O)[C@H](C(C)C)N(C)C(=O)CN(C)C(=O)[C@H]([C@@H](C)O)NC(=O)[C@H](CC(C)C)N(C)C1=O [pd199] ([dNMeA][NMeF]L[NMeL]T[Sar][NMeV]S(tBu)[NMeF][NMeF][NMeD]-Piperidide; lactam N-11) | 2.6e-06 cm/s | 2.6 ×10⁻⁶ cm/s | – |
| CC(C)C[C@@H]1NC(=O)[C@H](Cc2ccccc2)N(C)C(=O)[C@H]2CCCN2C(=O)C[C@@H](C(=O)N2CCCCC2)N(C)C(=O)[C@H](Cc2ccccc2)N(C)C(=O)[C@H](Cc2ccccc2)N(C)C(=O)[C@H](COC(C)(C)C)NC(=O)[C@H](C(C)C)N(C)C(=O)CN(C)C(=O)[C@H]([C@@H](C)O)NC(=O)[C@H](CC(C)C)N(C)C1=O [pd200] ([dP][NMeF]L[NMeL]T[Sar][NMeV]S(tBu)[NMeF][NMeF][NMeD]-Piperidide; lactam N-11) | 2.6e-06 cm/s | 2.6 ×10⁻⁶ cm/s | – |
| CC(C)C[C@@H]1NC(=O)[C@H](Cc2ccccc2)N(C)C(=O)[C@H](C)N(C)C(=O)C[C@@H](C(=O)N2CCCCC2)NC(=O)[C@H](CC(C)C)N(C)C(=O)[C@H](Cc2ccccc2)N(C)C(=O)[C@H](Cc2ccccc2)NC(=O)[C@H](Cc2cscn2)N(C)C(=O)[C@H](C)N(C)C(=O)[C@H](CC(C)C)N(C)C(=O)[C@H]([C@@H](C)O)NC1=O [pd238] ([NMeA][NMeF]LT[NMeL][NMeA][NMeAla(4-thiazolyl)]F[NMeF][NMeL]D-Piperidide; lactam N-11) | – | – | Caco-2 (cm/sec) Papp (Caco-2; human): 8.8e-08 cm/s; Papp (in vitro; Caco-2, Caco-2 (cm/sec) Papp): 0.096 ×10⁻⁶ cm/s |

— US20230096766A1, “AMINO ACID HAVING FUNCTIONAL GROUP CAPABLE OF INTERMOLECULAR HYDROGEN BONDING, PEPTIDE COMPOUND CONTAINING SAME AND METHOD FOR PRODUCTION THEREOF” (Chugai Seiyaku Kabushiki Kaisha, priority 2018, published 2023)
